Assay results: patent US20250143299A1, “METHODS AND COMPOSITIONS FOR CONTROLLING PESTS IN VEGETABLES” (Globachem NV, priority 2022, published 2025)

Experiments:
Type in all cases: in vivo
Pea = assay: Example 5 phytotoxicity, chlorosis (PHYCHL) on pea; design: scale not given here; conditions: appl. AB
Method: The trial was conducted on peas, variety Batuta, 4 replicates per plot. A water volume of 200 L water/ha was used for each application. Two applications were made, Application A was made at first infestation and Application B was made 14d later. Each plot at least 12 m^2.

[1] = system: Leptinotarsa decemlineata; assay: Example 8 Trial 1 potato, Leptinotarsa decemlineata (Colorado potato beetle) control; conditions: appl. AB, 8 DAB
Excerpt: Potatoes—Leptinotarsa decemlineata (Colorado Potato Beetle)—LEPTNDE
(§1) Trial 1: Potatoes, variety Lady Amarilla, 4 replicates per plot, each plot at least 25 m^2. A water volume of 200 L water/ha was used for each application. Two applications were made at a 14d interval.
(§2) Application made at the occurrence of the insects. Application A was made at Stage BBCH 36, application B was made 14 days later at Stage BBCH 51.
Insects present at the time of application: at App A 39/10 plants at App B in untreated: 35/10 plants.

Potato = assay: Example 8 Trial 1 phytotoxicity, general injury (PHYGEN) on potato; design: scale not given here; conditions: appl. AB
Excerpt: as §1, §2

SMILES: CCCCCCCCC(=O)O [PA, pelargonic acid]
- Phytotoxicity - Chlorosis (PHYCHL) (Pea; 585 g/ha (0.9 L/ha), 14 DAA): 0
- Phytotoxicity - Chlorosis (PHYCHL) (Pea; 585 g/ha (0.9 L/ha), 14 DAB): 0
- Phytotoxicity - Chlorosis (PHYCHL) (Pea; 585 g/ha (0.9 L/ha), Same day A): 0
- Phytotoxicity - Chlorosis (PHYCHL) (Pea; 585 g/ha (0.9 L/ha), Same day B): 0
- Phytotoxicity - Chlorosis (PHYCHL) (Pea; 975 g/ha (1.5 L/ha), 3 DAA): 2
- Phytotoxicity - Chlorosis (PHYCHL) (Pea; 975 g/ha (1.5 L/ha), 3 DAB): 2
- Phytotoxicity - Chlorosis (PHYCHL) (Pea; 975 g/ha (1.5 L/ha), 7 DAA): 2
- Phytotoxicity - Chlorosis (PHYCHL) (Pea; 975 g/ha (1.5 L/ha), 7 DAB): 2
- Phytotoxicity - Chlorosis (PHYCHL) (Pea; 975 g/ha (1.5 L/ha), 14 DAA): 2
- Phytotoxicity - Chlorosis (PHYCHL) (Pea; 975 g/ha (1.5 L/ha), 14 DAB): 0
- Phytotoxicity - Chlorosis (PHYCHL) (Pea; 975 g/ha (1.5 L/ha), Same day A): 0
- Phytotoxicity - Chlorosis (PHYCHL) (Pea; 975 g/ha (1.5 L/ha), Same day B): 3
- Phytotoxicity - Chlorosis (PHYCHL) (Pea; 1300 g/ha (2.0 L/ha), 3 DAA): 5
- Phytotoxicity - Chlorosis (PHYCHL) (Pea; 1300 g/ha (2.0 L/ha), 3 DAB): 6
- Phytotoxicity - Chlorosis (PHYCHL) (Pea; 1300 g/ha (2.0 L/ha), 7 DAA): 6
- Phytotoxicity - Chlorosis (PHYCHL) (Pea; 1300 g/ha (2.0 L/ha), 7 DAB): 6
- Phytotoxicity - Chlorosis (PHYCHL) (Pea; 1300 g/ha (2.0 L/ha), 14 DAA): 4
- Phytotoxicity - Chlorosis (PHYCHL) (Pea; 1300 g/ha (2.0 L/ha), 14 DAB): 0
- Phytotoxicity - Chlorosis (PHYCHL) (Pea; 1300 g/ha (2.0 L/ha), Same day A): 5
- Phytotoxicity - Chlorosis (PHYCHL) (Pea; 1300 g/ha (2.0 L/ha), Same day B): 4
- Phytotoxicity - Chlorosis (PHYCHL) (Pea; 2600 g/ha (4.0 L/ha), 3 DAA): 15
- Phytotoxicity - Chlorosis (PHYCHL) (Pea; 2600 g/ha (4.0 L/ha), 3 DAB): 23
- Phytotoxicity - Chlorosis (PHYCHL) (Pea; 2600 g/ha (4.0 L/ha), 7 DAA): 20
- Phytotoxicity - Chlorosis (PHYCHL) (Pea; 2600 g/ha (4.0 L/ha), 7 DAB): 13
- Phytotoxicity - Chlorosis (PHYCHL) (Pea; 2600 g/ha (4.0 L/ha), 14 DAA): 20
- Phytotoxicity - Chlorosis (PHYCHL) (Pea; 2600 g/ha (4.0 L/ha), 14 DAB): 2
- Phytotoxicity - Chlorosis (PHYCHL) (Pea; 2600 g/ha (4.0 L/ha), Same day A): 15
- Phytotoxicity - Chlorosis (PHYCHL) (Pea; 2600 g/ha (4.0 L/ha), Same day B): 20
- COUINS # L1-L3/10 plants ([1]; 585 g/ha (0.9 L/ha)): 88.2 % UNCK
- COUINS # L4/10 plants ([1]; 585 g/ha (0.9 L/ha)): 57.9 % UNCK
- COUINS # L1-L3/10 plants ([1]; 975 g/ha (1.5 L/ha)): 17.6 % UNCK
- COUINS # L4/10 plants ([1]; 975 g/ha (1.5 L/ha)): 57.9 % UNCK
- COUINS # L1-L3/10 plants ([1]; 1300 g/ha (2.0 L/ha)): 82.4 % UNCK
- COUINS # L4/10 plants ([1]; 1300 g/ha (2.0 L/ha)): 57.9 % UNCK
- COUINS # L1-L3/10 plants ([1]; 2600 g/ha (4.0 L/ha)): 76.5 % UNCK
- COUINS # L4/10 plants ([1]; 2600 g/ha (4.0 L/ha)): 68.4 % UNCK
- Phytotoxicity - General Injury (PHYGEN) (Potato; 585 g/ha (0.9 L/ha), 3 DAB): 0
- Phytotoxicity - General Injury (PHYGEN) (Potato; 585 g/ha (0.9 L/ha), 7 DAA): 0
- Phytotoxicity - General Injury (PHYGEN) (Potato; 585 g/ha (0.9 L/ha), 8 DAB): 0
- Phytotoxicity - General Injury (PHYGEN) (Potato; 585 g/ha (0.9 L/ha), 15 DAA): 0
- Phytotoxicity - General Injury (PHYGEN) (Potato; 975 g/ha (1.5 L/ha), 3 DAB): 0
- Phytotoxicity - General Injury (PHYGEN) (Potato; 975 g/ha (1.5 L/ha), 7 DAA): 1.3
- Phytotoxicity - General Injury (PHYGEN) (Potato; 975 g/ha (1.5 L/ha), 8 DAB): 0
- Phytotoxicity - General Injury (PHYGEN) (Potato; 975 g/ha (1.5 L/ha), 15 DAA): 0
- Phytotoxicity - General Injury (PHYGEN) (Potato; 1300 g/ha (2.0 L/ha), 3 DAB): 1
- Phytotoxicity - General Injury (PHYGEN) (Potato; 1300 g/ha (2.0 L/ha), 7 DAA): 1
- Phytotoxicity - General Injury (PHYGEN) (Potato; 1300 g/ha (2.0 L/ha), 8 DAB): 1
- Phytotoxicity - General Injury (PHYGEN) (Potato; 1300 g/ha (2.0 L/ha), 15 DAA): 0
- Phytotoxicity - General Injury (PHYGEN) (Potato; 2600 g/ha (4.0 L/ha), 3 DAB): 4.5
- Phytotoxicity - General Injury (PHYGEN) (Potato; 2600 g/ha (4.0 L/ha), 7 DAA): 6
- Phytotoxicity - General Injury (PHYGEN) (Potato; 2600 g/ha (4.0 L/ha), 8 DAB): 5
- Phytotoxicity - General Injury (PHYGEN) (Potato; 2600 g/ha (4.0 L/ha), 15 DAA): 4
